Key:
[1] = target: CAI (Homo sapiens, UniProt P00915); experiment: fluorescent thermal shift assay (FTSA), CAI; type: binding; settings: 37 °C; for ΔGintr CAI: converted from Kd_intr, independent of pH; for ΔGobs CAI: converted from Kd_obs, pH 7.0, FTSA
[2] = target: CAII (Homo sapiens, UniProt P00918); experiment: fluorescent thermal shift assay (FTSA), CAII; type: binding; settings: 37 °C; for ΔGintr CAII: converted from Kd_intr, independent of pH; for ΔGobs CAII: converted from Kd_obs, pH 7.0, FTSA
[3] = target: CAIII (Homo sapiens, UniProt P07451); experiment: fluorescent thermal shift assay (FTSA), CAIII; type: binding; settings: 37 °C; for ΔGintr CAIII: converted from Kd_intr, independent of pH; for ΔGobs CAIII: converted from Kd_obs, pH 7.0, FTSA
Chain of CAIII (P07451 whole entry): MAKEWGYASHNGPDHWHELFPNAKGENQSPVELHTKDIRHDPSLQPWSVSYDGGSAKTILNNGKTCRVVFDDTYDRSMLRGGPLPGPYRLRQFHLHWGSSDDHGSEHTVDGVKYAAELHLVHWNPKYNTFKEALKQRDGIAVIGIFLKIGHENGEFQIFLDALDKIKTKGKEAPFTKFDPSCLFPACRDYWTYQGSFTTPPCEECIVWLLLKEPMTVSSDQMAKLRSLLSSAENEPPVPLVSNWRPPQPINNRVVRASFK

[4] = target: CAVA (Homo sapiens, UniProt P35218); experiment: fluorescent thermal shift assay (FTSA), CAVA; type: binding; settings: 37 °C; for ΔGintr CAVA: converted from Kd_intr, independent of pH; for ΔGobs CAVA: converted from Kd_obs, pH 7.0, FTSA
Chain of CAVA (P35218 39-305): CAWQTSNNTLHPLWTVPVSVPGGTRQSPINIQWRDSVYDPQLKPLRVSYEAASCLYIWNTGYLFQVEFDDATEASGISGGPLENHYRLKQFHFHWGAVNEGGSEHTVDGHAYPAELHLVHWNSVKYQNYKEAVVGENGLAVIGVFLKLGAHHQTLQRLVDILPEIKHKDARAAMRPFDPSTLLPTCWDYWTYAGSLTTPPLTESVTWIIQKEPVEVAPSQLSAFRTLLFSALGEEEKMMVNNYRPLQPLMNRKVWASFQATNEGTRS

[5] = target: CAVB (Homo sapiens, UniProt Q9Y2D0); experiment: fluorescent thermal shift assay (FTSA), CAVB; type: binding; settings: 37 °C; for ΔGobs CAVB: converted from Kd_obs, pH 7.0, FTSA; for ΔGintr CAVB: converted from Kd_intr, independent of pH
Chain of CAVB (Q9Y2D0 34-317): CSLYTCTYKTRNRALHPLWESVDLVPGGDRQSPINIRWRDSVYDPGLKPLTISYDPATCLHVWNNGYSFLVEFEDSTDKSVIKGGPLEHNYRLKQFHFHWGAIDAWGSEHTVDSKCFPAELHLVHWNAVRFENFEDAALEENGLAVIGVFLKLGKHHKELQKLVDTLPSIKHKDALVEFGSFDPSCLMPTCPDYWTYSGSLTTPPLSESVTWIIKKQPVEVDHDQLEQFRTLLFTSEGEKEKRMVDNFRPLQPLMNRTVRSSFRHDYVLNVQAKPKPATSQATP

[6] = target: CAVI (Homo sapiens, UniProt P23280); experiment: fluorescent thermal shift assay (FTSA), CAVI; type: binding; settings: 37 °C; for ΔGintr CAVI: converted from Kd_intr, independent of pH; for ΔGobs CAVI: converted from Kd_obs, pH 7.0, FTSA
Chain of CAVI (P23280 18-308): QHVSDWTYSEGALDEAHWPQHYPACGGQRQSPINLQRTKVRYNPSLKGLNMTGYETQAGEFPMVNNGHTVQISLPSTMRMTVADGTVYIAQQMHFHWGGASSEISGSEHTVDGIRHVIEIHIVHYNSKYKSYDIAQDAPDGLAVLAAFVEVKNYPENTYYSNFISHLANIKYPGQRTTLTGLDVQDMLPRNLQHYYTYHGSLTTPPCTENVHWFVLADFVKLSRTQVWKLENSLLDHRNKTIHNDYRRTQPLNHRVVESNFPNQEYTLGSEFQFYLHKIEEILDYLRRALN

[7] = target: CAVII (Homo sapiens, UniProt P43166); experiment: fluorescent thermal shift assay (FTSA), CAVII; type: binding; settings: 37 °C; for ΔGintr CAVII: converted from Kd_intr, independent of pH; for ΔGobs CAVII: converted from Kd_obs, pH 7.0, FTSA
Chain of CAVII (P43166 whole entry): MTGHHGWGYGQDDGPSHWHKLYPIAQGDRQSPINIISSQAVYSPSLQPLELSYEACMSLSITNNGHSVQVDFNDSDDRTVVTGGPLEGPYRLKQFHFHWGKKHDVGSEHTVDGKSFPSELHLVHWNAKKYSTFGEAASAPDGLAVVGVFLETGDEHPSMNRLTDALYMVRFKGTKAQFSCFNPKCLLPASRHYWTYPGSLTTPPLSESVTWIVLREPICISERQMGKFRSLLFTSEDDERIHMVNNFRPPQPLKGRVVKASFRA

[8] = target: CAIX (Homo sapiens, UniProt Q16790); experiment: fluorescent thermal shift assay (FTSA), CAIX; type: binding; settings: for ΔGobs CAIX: pH 7
[9] = target: CAXIII (Homo sapiens, UniProt Q8N1Q1); experiment: fluorescent thermal shift assay (FTSA), CAXIII; type: binding; settings: 37 °C; for ΔGintr CAXIII: converted from Kd_intr, independent of pH; for ΔGobs CAXIII: converted from Kd_obs, pH 7.0, FTSA
Chain of CAXIII (Q8N1Q1 whole entry): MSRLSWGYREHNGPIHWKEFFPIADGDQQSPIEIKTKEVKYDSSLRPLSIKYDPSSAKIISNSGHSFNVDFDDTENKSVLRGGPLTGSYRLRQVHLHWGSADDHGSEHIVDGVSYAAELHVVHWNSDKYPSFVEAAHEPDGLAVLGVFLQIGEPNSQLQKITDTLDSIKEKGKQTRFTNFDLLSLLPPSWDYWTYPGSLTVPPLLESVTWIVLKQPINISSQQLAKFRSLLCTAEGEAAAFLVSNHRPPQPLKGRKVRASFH

[10] = target: CAXIV (Homo sapiens, UniProt Q9ULX7); experiment: fluorescent thermal shift assay (FTSA), CAXIV; type: binding; settings: 37 °C; for ΔGintr CAXIV: converted from Kd_intr, independent of pH; for ΔGobs CAXIV: converted from Kd_obs, pH 7.0, FTSA
Chain of CAXIV (Q9ULX7 16-337): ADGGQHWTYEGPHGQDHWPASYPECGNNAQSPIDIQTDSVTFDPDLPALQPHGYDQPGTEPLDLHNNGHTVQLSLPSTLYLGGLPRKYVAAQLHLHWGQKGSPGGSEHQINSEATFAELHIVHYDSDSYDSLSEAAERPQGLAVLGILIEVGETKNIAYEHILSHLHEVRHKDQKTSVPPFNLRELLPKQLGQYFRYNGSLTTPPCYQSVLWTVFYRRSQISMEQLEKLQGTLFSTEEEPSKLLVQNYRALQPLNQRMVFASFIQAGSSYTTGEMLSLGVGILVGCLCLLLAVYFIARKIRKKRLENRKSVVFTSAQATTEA

[11] = determination of pKa of the sulfonamide group by UV-VIS spectra at various pH; type: physicochemical; settings: for f RSO2NH-, fraction of deprotonated sulfonamide: at pH 7.0, calculated from pKa; for pKa: calculated from spectra at various pH, 37 °C
[12] = target: CAIV (Homo sapiens, UniProt P22748); experiment: fluorescent thermal shift assay (FTSA), CAIV; type: binding; settings: 37 °C; for ΔGintr CAIV: converted from Kd_intr, independent of pH; for ΔGobs CAIV: converted from Kd_obs, pH 7.0, FTSA
Chain of CAIV (P22748 19-312): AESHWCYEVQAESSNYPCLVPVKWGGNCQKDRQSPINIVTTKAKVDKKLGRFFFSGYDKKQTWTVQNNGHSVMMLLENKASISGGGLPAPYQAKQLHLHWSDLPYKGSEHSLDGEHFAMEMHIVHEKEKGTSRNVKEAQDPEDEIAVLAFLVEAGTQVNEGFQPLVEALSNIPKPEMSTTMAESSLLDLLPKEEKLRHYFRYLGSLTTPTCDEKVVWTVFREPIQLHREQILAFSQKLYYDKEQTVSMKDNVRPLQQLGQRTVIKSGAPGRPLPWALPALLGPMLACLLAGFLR

[13] = target: CAXII (Homo sapiens, UniProt O43570); experiment: fluorescent thermal shift assay (FTSA), CAXII; type: binding; settings: 37 °C; for ΔGintr CAXII: converted from Kd_intr, independent of pH; for ΔGobs CAXII: converted from Kd_obs, pH 7.0, FTSA
Chain of CAXII (O43570 25-354): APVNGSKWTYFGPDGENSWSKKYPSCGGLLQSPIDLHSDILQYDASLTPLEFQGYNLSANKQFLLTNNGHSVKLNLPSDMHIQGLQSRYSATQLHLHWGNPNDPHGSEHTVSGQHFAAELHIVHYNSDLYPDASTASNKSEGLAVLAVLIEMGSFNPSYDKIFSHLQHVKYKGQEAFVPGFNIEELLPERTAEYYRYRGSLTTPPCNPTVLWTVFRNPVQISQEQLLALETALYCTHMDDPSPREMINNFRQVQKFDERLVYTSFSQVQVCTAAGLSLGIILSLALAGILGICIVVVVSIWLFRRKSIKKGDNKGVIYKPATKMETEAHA

Chain of CAI (P00915 whole entry): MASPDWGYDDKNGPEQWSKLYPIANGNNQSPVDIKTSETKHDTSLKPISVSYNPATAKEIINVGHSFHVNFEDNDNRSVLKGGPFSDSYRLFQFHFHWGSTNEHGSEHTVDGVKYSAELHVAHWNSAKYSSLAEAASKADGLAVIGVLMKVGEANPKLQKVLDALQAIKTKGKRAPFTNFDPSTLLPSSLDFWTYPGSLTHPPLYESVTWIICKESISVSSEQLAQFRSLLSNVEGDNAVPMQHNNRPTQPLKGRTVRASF

Row | Compound | ΔGintr CAI [1] | ΔGobs CAI [1] | ΔGintr CAII [2] | ΔGobs CAII [2] | ΔGintr CAIII [3] | ΔGobs CAIII [3] | ΔGobs CAVB [5] | ΔGintr CAVI [6] | ΔGobs CAVI [6] | ΔGintr CAVII [7] | ΔGobs CAVII [7] | ΔGobs CAIX [8] | ΔGintr CAXIII [9] | ΔGobs CAXIII [9] | ΔGintr CAXIV [10] | ΔGobs CAXIV [10] | f RSO2NH-, fraction of deprotonated sulfonamide [11] | pKa [11] | ΔGintr CAVB [5] | ΔGintr CAIX [8] | further results
1 | COC(=O)c1cc(S(N)(=O)=O)c(Cl)cc1S(=O)(=O)CCc1ccccc1 [Compound 9d, Methyl 4-chloro-2-(2-phenylethylsulfonyl)-5-sulfamoylbenzoate] | -47.1 kJ/mol | -38.5 kJ/mol | -62.6 kJ/mol | -52.1 kJ/mol | -47.9 kJ/mol | -35.8 kJ/mol | -53.2 kJ/mol | -59.6 kJ/mol | -45.0 kJ/mol | -64.7 kJ/mol | -53.8 kJ/mol | -51.1 kJ/mol | -59.3 kJ/mol | -50.6 kJ/mol | -63.7 kJ/mol | -52.8 kJ/mol | 3.8% | 8.4 |  |  | ΔGintr CAVA [4]: -49.2 kJ/mol; ΔGobs CAVA [4]: -39.8 kJ/mol
2 | COC(=O)c1cc(S(N)(=O)=O)c(Cl)cc1SCCc1ccccc1 [Compound 5d, Methyl 4-chloro-2-(2-phenylethylsulfanyl)-5-sulfamoylbenzoate] | -46.3 kJ/mol | -32.4 kJ/mol | -60.7 kJ/mol | -44.9 kJ/mol |  |  | -49.6 kJ/mol | -55.9 kJ/mol | -36.1 kJ/mol |  | -45.3 kJ/mol | -47.0 kJ/mol | -62.2 kJ/mol | -48.3 kJ/mol | -62.2 kJ/mol | -46.1 kJ/mol | 0.5% | 9.3 | -65.1 kJ/mol | -63.9 kJ/mol | ΔGintr CAIV [12]: -52.4 kJ/mol; ΔGobs CAIV [12]: -35.5 kJ/mol
3 | COC(=O)c1cc(S(N)(=O)=O)c(Cl)cc1S(=O)(=O)C1CCCCC1 [Compound 9b, Methyl 4-chloro-2-cyclohexylsulfonyl-5-sulfamoyl-benzoate] | -50.1 kJ/mol | -42.6 kJ/mol | -63.9 kJ/mol | -54.5 kJ/mol |  |  | -54.2 kJ/mol | -57.3 kJ/mol | -43.8 kJ/mol | -67.6 kJ/mol | -57.9 kJ/mol | -53.4 kJ/mol | -58.4 kJ/mol | -50.8 kJ/mol | -64.3 kJ/mol | -54.6 kJ/mol | 5.9% | 8.2 | -63.2 kJ/mol |  | ΔGintr CAIV [12]: -50.3 kJ/mol; ΔGobs CAIV [12]: -39.8 kJ/mol; ΔGintr CAVA [4]: -45.7 kJ/mol; ΔGobs CAVA [4]: -37.4 kJ/mol
4 | COC(=O)c1cc(S(N)(=O)=O)c(Br)cc1Br [Compound 2, Methyl 2,4-dibromo-5-sulfamoyl-benzoate] | -38.8 kJ/mol | -27.9 kJ/mol | -54.6 kJ/mol | -41.8 kJ/mol | ≥ -36.4 kJ/mol | ≥ -22.0 kJ/mol | -44.4 kJ/mol | -55.8 kJ/mol | -38.9 kJ/mol | -56.3 kJ/mol | -43.1 kJ/mol | -41.2 kJ/mol | -53.7 kJ/mol | -42.8 kJ/mol | -57.1 kJ/mol | -43.9 kJ/mol | 1.6% | 8.8 | -56.9 kJ/mol | -55.1 kJ/mol | ΔGintr CAXII [13]: -51.6 kJ/mol; ΔGobs CAXII [13]: -38.5 kJ/mol
5 | COC(=O)c1cc(S(N)(=O)=O)c(SC2CCCCCCCCCCC2)cc1Cl [Compound 3e, Methyl 2-chloro-4-(cyclododecylsulfanyl)-5-sulfamoylbenzoate] | -44.9 kJ/mol | -29.3 kJ/mol | -55.5 kJ/mol | -38.0 kJ/mol | ≥ -41.1 kJ/mol | ≥ -22.0 kJ/mol | -24.8 kJ/mol | -55.5 kJ/mol | -33.8 kJ/mol | -50.4 kJ/mol | -32.5 kJ/mol | -55.5 kJ/mol | -60.7 kJ/mol | -45.0 kJ/mol | -62.0 kJ/mol | -44.1 kJ/mol | 0.3% | 9.6 | -42.0 kJ/mol | -74.2 kJ/mol | ΔGintr CAIV [12]: -58.5 kJ/mol; ΔGobs CAIV [12]: -39.8 kJ/mol; ΔGintr CAVA [4]: ≥ -38.5 kJ/mol; ΔGobs CAVA [4]: ≥ -22.0 kJ/mol
6 | COC(=O)c1cc(S(N)(=O)=O)c(SCc2ccccc2)cc1Cl [Compound 3c, Methyl 4-(benzylsulfanyl)-2-chloro-5-sulfamoylbenzoate] | -45.7 kJ/mol | -30.6 kJ/mol | -58.2 kJ/mol | -41.3 kJ/mol | -42.9 kJ/mol | -24.3 kJ/mol | -31.5 kJ/mol | -59.3 kJ/mol | -38.3 kJ/mol | -57.8 kJ/mol | -40.5 kJ/mol | -50.7 kJ/mol | -59.1 kJ/mol | -44.0 kJ/mol | -61.2 kJ/mol | -43.9 kJ/mol | 0.3% | 9.5 | -48.1 kJ/mol | -68.8 kJ/mol | ΔGintr CAVA [4]: ≥ -37.9 kJ/mol; ΔGobs CAVA [4]: ≥ -22.0 kJ/mol
7 | COC(=O)c1cc(S(N)(=O)=O)c(Br)cc1S(=O)(=O)c1ccccc1 [Compound 10a, Methyl 2-(benzenesulfonyl)-4-bromo-5-sulfamoylbenzoate] | -47.1 kJ/mol | -38.5 kJ/mol | -61.8 kJ/mol | -51.3 kJ/mol |  |  | -49.2 kJ/mol | -56.0 kJ/mol | -41.4 kJ/mol | -65.3 kJ/mol | -54.5 kJ/mol | -50.3 kJ/mol | -58.3 kJ/mol | -49.6 kJ/mol | -62.5 kJ/mol | -51.6 kJ/mol | 3.8% | 8.4 | -59.4 kJ/mol | -62.0 | 
8 | COC(=O)c1cc(S(N)(=O)=O)c(S(=O)(=O)C2CCCCC2)cc1Cl [Compound 7b, Methyl 2-chloro-4-cyclohexylsulfonyl-5-sulfamoylbenzoate] | -40.6 kJ/mol | -23.7 kJ/mol | -44.3 kJ/mol | -25.5 kJ/mol | -44.1 kJ/mol | -23.7 kJ/mol | -23.7 kJ/mol | -44.9 kJ/mol | -22.1 kJ/mol | ≥ -41.0 kJ/mol | ≥ -22.0 kJ/mol | -29.9 kJ/mol |  | -24.7 kJ/mol | -43.8 kJ/mol | -24.7 kJ/mol | 0.2% | 9.8 | -42.2 kJ/mol | -49.8 kJ/mol | ΔGintr CAVA [4]: -41.4 kJ/mol; ΔGobs CAVA [4]: -23.7 kJ/mol; ΔGintr CAXII [13]: -43.9 kJ/mol; ΔGobs CAXII [13]: -24.8 kJ/mol
9 | COC(=O)c1cc(S(N)(=O)=O)c(SC2CCCCC2)cc1Br [Compound 4b, Methyl 2-bromo-4-(cyclohexylsulfanyl)-5-sulfamoylbenzoate] | -46.4 kJ/mol | -30.7 kJ/mol | -57.3 kJ/mol | -39.8 kJ/mol | -44.8 kJ/mol | -25.7 kJ/mol | -32.5 kJ/mol | -58.8 kJ/mol | -37.1 kJ/mol | -57.4 kJ/mol | -39.5 kJ/mol | -59.0 kJ/mol | -60.1 kJ/mol | -44.4 kJ/mol | -63.6 kJ/mol | -45.7 kJ/mol | 0.3% |  | -49.8 kJ/mol | -77.6 kJ/mol | ΔGintr CAVA [4]: ≥ -38.5 kJ/mol; ΔGobs CAVA [4]: ≥ -22.0 kJ/mol

— PMC8745178, “Methyl 2-Halo-4-Substituted-5-Sulfamoyl-Benzoates as High Affinity and Selective Inhibitors of Carbonic Anhydrase IX” (International Journal of Molecular Sciences, 2021)
